SMILES strings stand for the structures. Bounds are passed on as bounds.

This assay relates to Aβ40 in conditioned medium of cells stably expressing Amyloid Precursor Protein (APP). Put plainly: BACE cell-based assay: Aβ40 in conditioned medium by sandwich ELISA. To be noted: cell based assay data, Table 4; unit inferred; read-out: Cell Assay. An outline of the steps: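 APP-stable cells grown 24 h in DMEM/10% FBS, then exposed to compounds for 24 h in a 10-point dose series starting at 100 or 10 μM, 0.1% DMSO final. Medium Aβ40 measured by pAb40/biotinylated 6E10 sandwich ELISA with Europium time-resolved fluorescence; IC50 from percent inhibition.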
In general terms: An ELISA detects its analyte on a solid surface through an enzyme-linked reagent.
Turning to `CC(=O)N[C@@H](Cc1ccc(F)c(F)c1)[C@H](O)CN[C@H]1CC(C)(C)Oc2c1cc(CC(C)(C)C)nc2N1CCCC1` [compound 758], the IC50 turned out to be 40.1 nM. For `CC(=O)N[C@@H](Cc1cc(F)cc(N(C)C)c1)[C@H](O)CN[C@H]1CC2(CCC2)Oc2ncc(CC(C)(C)C)cc21` [compound 759], the IC50 amounted to 17.9 nM. Consider `CNc1nc(CC(C)(C)C)cc2c1OC(C)(C)C[C@@H]2NC[C@@H](O)[C@H](Cc1ccc(F)c(F)c1)NC(C)=O` [compound 760], for which the IC50 turned out to be 11.3 nM. In the case of `CC(=O)N[C@@H](Cc1ccc(F)cc1)[C@H](O)CN[C@H]1CC(C)(C)Oc2c1cc(CC(C)(C)C)nc2Cl` [compound 761], the IC50 was determined as 126 nM.

On to `CC(=O)N[C@@H](Cc1ccc(F)cc1)[C@H](O)CN[C@H]1CC(C)(C)Oc2c1cc(CC(C)(C)C)nc2N(C)C` [compound 762], for which the IC50 was found to be 166 nM. For `CC(=O)N[C@@H](Cc1cc(F)cc(Br)c1)[C@H](O)CN[C@H]1CC2(CCC2)Oc2ncc(CC(C)(C)C)cc21` [compound 763], the IC50 was determined as 6.49 nM. For `CC(=O)N[C@@H](Cc1cc(F)cc(F)c1)[C@H](O)CN[C@H]1CC2(CC(C)C2)Oc2ncc(CC(C)(C)C)cc21` (some centres unmarked) [compound 764] the value was 1.55 nM; for `CC(=O)N[C@@H](Cc1cc(F)cc(F)c1)[C@H](O)CN[C@H]1C[C@]2(C[C@H](C)C2)Oc2ncc(CC(C)(C)C)cc21` [compound 765, N-((1S,2R)-1-((3,5-difluorophenyl)methyl)-3-(((1s,3R,4′S)-6′-(2,2-dimethylpropyl)-3-methyl-3′,4′-dihydrospiro[cyclobutane-1,2′-pyrano[2,3-b]pyridin]-4′-yl)amino)-2-hydroxypropyl)acetamide], 1.14 nM. Turning to `CC(=O)N[C@@H](Cc1ccc(F)cc1)[C@H](O)CN[C@H]1CC2(CC(C)C2)Oc2ncc(CC(C)(C)C)cc21` (stereo partly drawn) [compound 766, N-((1S,2R)-3-(((4′S)-6′-(2,2-dimethylpropyl)-3-methyl-3′,4′-dihydrospiro[cyclobutane-1,2′-pyrano[2,3-b]pyridin]-4′-yl)amino)-1-((4-fluorophenyl)methyl)-2-hydroxypropyl)acetamide], the IC50 is 15.8 nM. As for `CC(=O)N[C@@H](Cc1ccc(F)cc1)[C@H](O)CN[C@H]1C[C@]2(C[C@H](C)C2)Oc2ncc(CC(C)(C)C)cc21` [compound 767, N-((1S,2R)-3-(((1s,3R,4′S)-6′-(2,2-dimethylpropyl)-3-methyl-3′,4′-dihydrospiro[cyclobutane-1,2′-pyrano[2,3-b]pyridin]-4′-yl)amino)-1-((4-fluorophenyl)methyl)-2-hydroxypropyl)acetamide], the IC50 came out at 5.7 nM. For the compound `CC(=O)N[C@@H](Cc1cccc(F)c1F)[C@H](O)CN[C@H]1C[C@]2(C[C@@H](C)C2)Oc2ncc(CC(C)(C)C)cc21` [compound 768, N-((1S,2R)-1-((2,3-difluorophenyl)methyl)-3-(((1r,3S,4′S)-6′-(2,2-dimethylpropyl)-3-methyl-3′,4′-dihydrospiro[cyclobutane-1,2′-pyrano[2,3-b]pyridin]-4′-yl)amino)-2-hydroxypropyl)acetamide], the IC50 stood at 38.9 nM. `CC(=O)N[C@@H](Cc1cccc(F)c1F)[C@H](O)CN[C@H]1C[C@]2(C[C@H](C)C2)Oc2ncc(CC(C)(C)C)cc21` [compound 769, N-((1S,2R)-1-((2,3-difluorophenyl)methyl)-3-(((1s,3R,4′S)-6′-(2,2-dimethylpropyl)-3-methyl-3′,4′-dihydrospiro[cyclobutane-1,2′-pyrano[2,3-b]pyridin]-4′-yl)amino)-2-hydroxypropyl)acetamide]: the IC50 came to 33.8 nM. Turning to `CC(=O)N[C@@H](Cc1cccc(F)c1)[C@H](O)CN[C@H]1C[C@]2(C[C@H](C)C2)Oc2ncc(CC(C)(C)C)cc21` [compound 770, N-((1S,2R)-3-(((1s,3R,4′S)-6′-(2,2-dimethylpropyl)-3-methyl-3′,4′-dihydrospiro[cyclobutane-1,2′-pyrano[2,3-b]pyridin]-4′-yl)amino)-1-((3-fluorophenyl)methyl)-2-hydroxypropyl)acetamide], the IC50 amounted to 2.46 nM. In the case of `CC(=O)N[C@@H](Cc1ccccc1)[C@H](O)CN[C@H]1CC2(CCC2)Oc2ccc(NC3CCCC3)cc21` [compound 771], the IC50 was found to be 166 nM. `CC(=O)N[C@@H](Cc1ccccc1)[C@H](O)CN[C@H]1CC2(CCC2)Oc2ccc(NC(C)(C)C)cc21` [compound 772]: the IC50 was 981 nM. On to `CC(=O)N[C@@H](Cc1cc(F)cc(F)c1)[C@H](O)CN[C@H]1CC2(CCC2)Oc2c1cc(Cl)cc2-n1ccnc1` [compound 773], for which the IC50 came to 21.9 nM.

Take `CC(=O)N[C@@H](Cc1cc(F)cc(F)c1)[C@H](O)CN[C@H]1CC2(CCC2)Oc2ccc(Br)cc21` [compound 774]: the IC50 is 88.2 nM. With `CC(=O)N[C@@H](Cc1cc(F)cc(F)c1)[C@H](O)CN[C@H]1CC2(CCC2)Oc2c1cc(Cl)cc2-n1cnc2ccccc21` [compound 775], the IC50 amounted to 212 nM. `CC(=O)N[C@@H](Cc1cc(F)cc(F)c1)[C@H](O)CN[C@H]1CC2(CCC2)Oc2c1cc(Cl)cc2-n1cccn1` [compound 776]: the IC50 amounted to 124 nM. As for `CC(=O)N[C@@H](Cc1cc(F)cc(F)c1)[C@H](O)CN[C@H]1CC2(CCC2)Oc2ccc(-n3cccn3)cc21` [compound 777], the IC50 was 41.2 nM.

`CC(=O)N[C@@H](Cc1ccccc1)[C@H](O)CN[C@H]1CC2(CCC2)Oc2ccc(-c3cccs3)cc21` [compound 778]: the IC50 amounted to 83.3 nM. As for `CC(=O)N[C@@H](Cc1ccccc1)[C@H](O)CN[C@H]1CC2(CCC2)Oc2ccc(-c3ccn(CC(C)C)n3)cc21` [compound 779], the IC50 was found to be 190 nM. For `CC(=O)N[C@@H](Cc1cc(F)cc(F)c1)[C@H](O)CN[C@H]1CC2(CCC2)Oc2ccc(-c3ccn(CC(C)C)n3)cc21` [compound 780] the value was 1650 nM; for `CC(=O)N[C@@H](Cc1cc(F)cc(F)c1)[C@@H](O)CN[C@H]1CC2(CCC2)Oc2ccc(-n3cccn3)cc21` [compound 781], 1160 nM; for `CC(=O)N[C@@H](Cc1cc(F)cc(F)c1)[C@H](O)CN[C@H]1CC2(CCC2)Oc2ccc(-n3ccnc3)cc21` [compound 782], 81.6 nM. As to `CC(=O)N[C@@H](Cc1ccccc1)[C@H](O)CN[C@H]1CC2(CCC2)Oc2ccc(-c3ccn(C)n3)cc21` [compound 783], the IC50 came out at 3240 nM. For the compound `CC(=O)N[C@@H](Cc1cc(F)cc(F)c1)[C@H](O)CN[C@H]1CC2(CCC2)Oc2ccc(-c3ccn(C)n3)cc21` [compound 784], the IC50 was found to be 1650 nM. As to `CC(=O)N[C@@H](Cc1cc(F)cc(F)c1)[C@H](O)CN[C@H]1CC2(CCC2)Oc2ccc(-c3cccs3)cc21` [compound 785], the IC50 is 2970 nM. Take `CC(=O)N[C@@H](Cc1cc(F)cc(F)c1)[C@@H](O)CN[C@H]1CC2(CCC2)Oc2c1cc(Cl)cc2-n1cccn1` [compound 786]: the IC50 stood at 1370 nM. With `CC(=O)N[C@@H](Cc1cc(F)cc(F)c1)[C@H](O)CN[C@H]1CC2(CCC2)Oc2cc(Br)ccc21` [compound 787], the IC50 is at least 10000 nM. For `CC(=O)Nc1ccc2c(c1)[C@@H](NC[C@@H](O)[C@H](Cc1cc(F)cc(F)c1)NC(C)=O)CC1(CCC1)O2` [compound 789] the value was 17.7 nM; for `CC(=O)N[C@@H](Cc1cc(F)cc(F)c1)[C@H](O)CN[C@H]1CC2(CCC2)Oc2ccc(N[C@@H]3CCOC3)cc21` [compound 790], 58.5 nM. For `CC(=O)N[C@@H](Cc1cc(F)cc(F)c1)[C@H](O)CN[C@H]1CC2(CCC2)Oc2ccc(-n3nccn3)cc21` [compound 791] the value was 803 nM; for `CC(=O)N[C@@H](Cc1cc(F)cc(F)c1)[C@H](O)CN[C@H]1CC2(CCC2)Oc2ccc(-n3cncn3)cc21` [compound 792], 137 nM; for `CC(=O)N[C@@H](Cc1cc(F)cc(F)c1)[C@H](O)CN[C@H]1CC2(CCC2)Oc2ccc(N3CCCC3=O)cc21` [compound 793], 359 nM. For `CC(=O)N[C@@H](Cc1ccccc1)[C@H](O)CN[C@H]1CC(C)(C)Oc2cnc(CC(C)(C)C)cc21` [compound 794] the value was 34.8 nM; for `CC(=O)N[C@@H](Cc1cc(F)cc(F)c1)[C@H](O)CN[C@H]1CC2(CCC2)Oc2ccc(N3CCC3=O)cc21` [compound 795], 255 nM; for `CC(=O)N[C@@H](Cc1cc(F)cc(Cl)c1)[C@H](O)CN[C@H]1CC(C)(C)Oc2cnc(CC(C)(C)C)cc21` [compound 796], 8.39 nM.

As for `CCC(=O)N[C@@H](Cc1cc(F)cc(Cl)c1)[C@H](O)CN[C@H]1CC(C)(C)Oc2cnc(CC(C)(C)C)cc21` [compound 797], the IC50 came out at 11.3 nM. As for `CC(=O)N[C@@H](Cc1cccc(F)c1)[C@H](O)CN[C@H]1CC(C)(C)Oc2cnc(CC(C)(C)C)cc21` [compound 798], the IC50 is 6.72 nM. In the case of `CC(=O)N[C@@H](Cc1ccc(F)cc1)[C@H](O)CN[C@H]1CC(C)(C)Oc2cnc(CC(C)(C)C)cc21` [compound 799], the IC50 worked out at 45.4 nM.

For the compound `CC(=O)N[C@@H](Cc1cc(F)cc(F)c1)[C@H](O)CN[C@H]1CC(C)(C)Oc2cnc(CC(C)(C)C)cc21` [compound 800], the IC50 turned out to be 3.56 nM. `CC(=O)N[C@@H](Cc1cc(F)cc(F)c1)[C@H](O)CN[C@H]1CC2(CCC2)Oc2cc(F)c(Br)cc21` [compound 801]: the IC50 was 571 nM.

Take `CC(=O)N[C@@H](Cc1cc(F)cc(F)c1)[C@H](O)CN[C@H]1CC(C)(C)Oc2cc(F)c(Br)cc21` [compound 802]: the IC50 worked out at 525 nM.

With `CC(=O)N[C@@H](Cc1cc(F)cc(F)c1)[C@H](O)CN[C@H]1CC2(CCC2)Oc2cc(F)c(N[C@@H]3CCOC3)cc21` [compound 803], the IC50 came to 116 nM.

Take `CC(=O)N[C@@H](Cc1cc(F)cc(F)c1)[C@H](O)CN[C@H]1CC2(CCC2)Oc2cc(F)ccc21` [compound 804]: the IC50 came to 2950 nM. In the case of `CC(=O)N[C@@H](Cc1cc(F)cc(NC2CCOCC2)c1)[C@H](O)CN[C@H]1CC2(CCC2)Oc2ncc(CC(C)(C)C)cc21` [compound 805], the IC50 is 5.14 nM.

These data come from patent US7973047B2, “Beta-Secretase modulators and methods of use” (Amgen Inc., priority 2010, dated 2011).
